From patent US6479435B1, “Diaryl ethers and processes for their preparation and herbicidal and desiccant compositions containing them” (ISK Americas Incorporated, priority 1997, dated 2002)

What was measured:
Type in all cases: in vivo
[1] = test system: lambsquarters (Chenopodium album, CHEAL); test: Post-emerge greenhouse herbicide test, phytotoxicity rating; conditions: Chenopodium album, post-emergence, 336 h, 14 days after application, scale 0-100; for pest or weed control at 63 g/ha: rate 63 g ai/ha; for pest or weed control at 500 g/ha: rate 500 g ai/ha
How it was run: (§1)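 Compounds in acetone with 0.25% v/v non-ionic surfactant were track-sprayed at 187 l/ha over plants at the 2-3 leaf stage, at 63 to 1000 g ai/ha. Pots were bottom-watered. Injury was scored visually 14 days later on a 0-100 scale, where 0 is no damage and 100 is complete plant death.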

[2] = test system: green foxtail (Setaria viridis, SETVI); test: as above; conditions: Setaria viridis, post-emergence, 336 h, 14 days after application, scale 0-100; for pest or weed control at 63 g/ha: rate 63 g ai/ha; for pest or weed control at 500 g/ha: rate 500 g ai/ha
How it was run: as §1

[3] = test system: Johnsongrass (Sorghum halepense, SORHA); test: as above; conditions: Sorghum halepense, post-emergence, 336 h, 14 days after application, scale 0-100; for pest or weed control at 63 g/ha: rate 63 g ai/ha; for pest or weed control at 500 g/ha: rate 500 g ai/ha
How it was run: as §1

[4] = test system: large crabgrass (Digitaria sanguinalis, DIGSA); test: as above; conditions: Digitaria sanguinalis, post-emergence, 336 h, 14 days after application, scale 0-100; for pest or weed control at 63 g/ha: rate 63 g ai/ha; for pest or weed control at 500 g/ha: rate 500 g ai/ha
How it was run: as §1

[5] = test system: sicklepod (Cassia obtusifolia, CASOB); test: as above; conditions: Senna obtusifolia, post-emergence, 336 h, 14 days after application, scale 0-100; for pest or weed control at 63 g/ha: rate 63 g ai/ha; for pest or weed control at 500 g/ha: rate 500 g ai/ha
How it was run: as §1

[6] = test system: redroot pigweed (Amaranthus retroflexus, AMARE); test: as above; conditions: Amaranthus retroflexus, post-emergence, 336 h, 14 days after application, scale 0-100; for pest or weed control at 63 g/ha: rate 63 g ai/ha; for pest or weed control at 500 g/ha: rate 500 g ai/ha
How it was run: as §1

[7] = test system: lambsquarters (Chenopodium album, CHEAL); test: Pre-emerge greenhouse herbicide test, phytotoxicity rating; conditions: Chenopodium album, pre-emergence, 336 h, 14 days after application, rating scale 0-100; for pest or weed control at 125 g/ha: Rate 125 g al/ha; for pest or weed control at 500 g/ha: Rate 500 g al/ha
How it was run: (§2)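 Seeds sown in sandy loam mix one day before track-sprayer application of compounds in acetone at 125–1000 g ai/ha (187 l/ha), then surface-watered to incorporate and bottom-watered. Visual rating 14 days after application on a 0–100 scale (0 = no damage, 100 = all plants dead).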

[8] = test system: velvetleaf (Abutilon theophrasti, ABUTH); test: as above; conditions: Abutilon theophrasti, pre-emergence, 336 h, 14 days after application, rating scale 0-100; for pest or weed control at 125 g/ha: Rate 125 g al/ha; for pest or weed control at 500 g/ha: Rate 500 g al/ha
How it was run: as §2

[9] = test system: green foxtail (Setaria viridis, SETVI); test: as above; conditions: Setaria viridis, pre-emergence, 336 h, 14 days after application, rating scale 0-100; for pest or weed control at 125 g/ha: Rate 125 g al/ha; for pest or weed control at 500 g/ha: Rate 500 g al/ha
How it was run: as §2

[10] = test system: Johnsongrass (Sorghum halepense, SORHA); test: as above; conditions: Sorghum halepense, pre-emergence, 336 h, 14 days after application, rating scale 0-100; for pest or weed control at 125 g/ha: Rate 125 g al/ha; for pest or weed control at 500 g/ha: Rate 500 g al/ha
How it was run: as §2

[11] = test system: barnyardgrass (Echinochloa crusgalli, ECHCG); test: as above; conditions: Echinochloa crus-galli, pre-emergence, 336 h, 14 days after application, rating scale 0-100; for pest or weed control at 125 g/ha: Rate 125 g al/ha; for pest or weed control at 500 g/ha: Rate 500 g al/ha
How it was run: as §2

[12] = test system: large crabgrass (Digitaria sanguinalis, DIGSA); test: as above; conditions: Digitaria sanguinalis, pre-emergence, 336 h, 14 days after application, rating scale 0-100; for pest or weed control at 125 g/ha: Rate 125 g al/ha; for pest or weed control at 500 g/ha: Rate 500 g al/ha
How it was run: as §2

[13] = test system: ivyleaf morningglory (Ipomoea hederacea, IPOHE); test: as above; conditions: Ipomoea, pre-emergence, 336 h, 14 days after application, rating scale 0-100; for pest or weed control at 125 g/ha: Rate 125 g al/ha; for pest or weed control at 500 g/ha: Rate 500 g al/ha
How it was run: as §2

[14] = test system: sicklepod (Cassia obtusifolia, CASOB); test: as above; conditions: Senna obtusifolia, pre-emergence, 336 h, 14 days after application, rating scale 0-100; for pest or weed control at 125 g/ha: Rate 125 g al/ha; for pest or weed control at 500 g/ha: Rate 500 g al/ha
How it was run: as §2

[15] = test system: redroot pigweed (Amaranthus retroflexus, AMARE); test: as above; conditions: Amaranthus retroflexus, pre-emergence, 336 h, 14 days after application, rating scale 0-100; for pest or weed control at 125 g/ha: Rate 125 g al/ha; for pest or weed control at 500 g/ha: Rate 500 g al/ha
How it was run: as §2

Compound	pest or weed control at 63 g/ha [1]	pest or weed control at 500 g/ha [1]	pest or weed control at 63 g/ha [2]	pest or weed control at 500 g/ha [2]	pest or weed control at 63 g/ha [3]	pest or weed control at 500 g/ha [3]	pest or weed control at 63 g/ha [4]	pest or weed control at 500 g/ha [4]	pest or weed control at 63 g/ha [5]	pest or weed control at 500 g/ha [5]	pest or weed control at 63 g/ha [6]	pest or weed control at 500 g/ha [6]	pest or weed control at 125 g/ha [7]	pest or weed control at 500 g/ha [7]	pest or weed control at 125 g/ha [8]	pest or weed control at 500 g/ha [8]	pest or weed control at 125 g/ha [9]	pest or weed control at 500 g/ha [9]	pest or weed control at 125 g/ha [10]	pest or weed control at 500 g/ha [10]	further results
Nn1c(C(F)(F)F)cc(=O)n(-c2cc(Oc3ccccc3)c(Cl)cc2F)c1=O [Compound 9-26, 1-Amino-3-[4-chloro-2-fluoro-5-phenoxyphenyl]-6-trifluoromethyl-1,2,3,4-tetrahydropyrimidine-2,4-dione]	100%	100%	100%	100%	90%	100%	80%	50%	100%	100%	100%	100%	100%	100%	100%	100%	100%	100%	90%	100%	pest or weed control at 125 g/ha [11]: 95%; pest or weed control at 500 g/ha [11]: 100%; pest or weed control at 125 g/ha [12]: 100%; pest or weed control at 500 g/ha [12]: 100%; pest or weed control at 125 g/ha [13]: 100%; pest or weed control at 500 g/ha [13]: 60%; pest or weed control at 125 g/ha [14]: 95%; pest or weed control at 500 g/ha [14]: 100%; pest or weed control at 125 g/ha [15]: 100%; pest or weed control at 500 g/ha [15]: 100%
Nn1c(C(F)(F)F)cc(=S)n(-c2cc(Oc3ccc(Cl)cn3)c(Cl)cc2F)c1=O [Compound 9-28, 1-amino-3-[4-chloro-2-fluoro-5-(5-chloro-2-pyridyloxy)phenyl]-6-trifluoromethyl-1,2,3,4tetrahydro-2-oxo-4-thioxopyrimidine]	80%	100%	25%	50%	0%	30%	0%	0%	10%	50%	90%	100%	100%	100%	100%	100%	100%	100%	20%	80%	pest or weed control at 125 g/ha [11]: 20%; pest or weed control at 500 g/ha [11]: 80%; pest or weed control at 125 g/ha [12]: 70%; pest or weed control at 500 g/ha [12]: 100%; pest or weed control at 125 g/ha [13]: 40%; pest or weed control at 500 g/ha [13]: 70%; pest or weed control at 125 g/ha [14]: 50%; pest or weed control at 500 g/ha [14]: 50%; pest or weed control at 125 g/ha [15]: 100%; pest or weed control at 500 g/ha [15]: 100%
